Reference: PMC6447767, “Simultaneous determination of the potent anti-tuberculosis regimen—Pyrazinamide, ethambutol, protionamide, clofazimine in beagle dog plasma using LC–MS/MS method coupled with 96-well format plate” (Journal of Pharmaceutical and Biomedical Analysis, 2019)
Read-outs that look alike come from different tables or passages of the source.

Assays:
[1] = Pharmacokinetic study of the PZA-EMB-PTO-CFZ combination after oral administration; conditions: beagle, dog, plasma, in combination; for AUC: AUC0-τ, 0 to 24/48 h; for AUC / AUC(0-inf) / Cmax / half-life: n = 6; for AUC(0-inf): AUC0-∞; for Tmax: n = 6, mean ± S.D.
in vivo = conditions: beagle, dog, po
[2] = Stability of analytes in Beagle dog plasma (freeze-thaw, long-term, auto-sampler, bench-top); conditions: for %Stability recoveries (Mean ± SD), Freeze-thaw (−80 °C) / %Stability recoveries (Mean ± SD), Bench-top 4 h (4 °C) / %Stability recoveries (Mean ± SD), Long-term 40 days (−80 °C) / Stability accuracy under the test conditions: Beagle dog plasma; for %Stability recoveries (Mean ± SD), Freeze-thaw (−80 °C): 3 freeze-thaw cycles; for %Stability recoveries (Mean ± SD), Freeze-thaw (−80 °C) / %Stability recoveries (Mean ± SD), Bench-top 4 h (4 °C) / %Stability recoveries (Mean ± SD), Long-term 40 days (−80 °C) / %Stability recoveries (Mean ± SD), Auto-sampler 27 h (18 °C): n = 3; for %Stability recoveries (Mean ± SD), Auto-sampler 27 h (18 °C): processed Beagle dog plasma samples; for Stability accuracy under the test conditions: summary over all stability conditions and QC levels
[3] = Solubility in organic solvents noted during sample preparation
[4] = beagle, dog
[5] = High Dose (double of standard dose)
[6] = Low Dose (half of standard dose)
[7] = T1/2, High Dose (double of standard dose)
[8] = T1/2, Low Dose (half of standard dose)
[9] = T1/2, Medium Dose (standard dose)
[10] = Medium Dose (standard: PZA 93.2, EMB 20.7, PTO 15.5, CFZ 5.2 mg/kg)

In the case of `CC(C)/N=c1\cc2n(-c3ccc(Cl)cc3)c3ccccc3nc-2cc1Nc1ccc(Cl)cc1` [CFZ, clofazimine], the AUC [1, 5] is reported as 0.143 ± 0.0371 µg·h/mL, the AUC [1, 6] is reported as 0.0175 ± 0.00967 µg·h/mL and the AUC ([1]; Medium Dose (standard dose)) is reported as 0.0422 ± 0.0177 µg·h/mL. For the same molecule, the AUC(0-inf) [1, 5] was 0.147 ± 0.0374 µg·h/mL, the AUC(0-inf) [1, 6] was 0.0238 ± 0.0118 µg·h/mL and the AUC(0-inf) ([1]; Medium Dose (standard dose)) was 0.0531 ± 0.0221 µg·h/mL. The Cmax [1, 5] was 21.6 ± 7.32 ng/mL, the Cmax [1, 6] was 3.69 ± 1.32 ng/mL and the Cmax ([1]; Medium Dose (standard dose)) was 7.24 ± 2.58 ng/mL. For the same molecule, the half-life [1, 7] was 3.63 ± 1.49 h, the half-life [1, 8] was 3.41 ± 1.31 h and the half-life [1, 9] was 4.03 ± 1.16 h. For the same molecule, the Tmax (in vivo) was 3.17 ± 0.98 h, the “%Stability recoveries (Mean ± SD), Freeze-thaw (−80 °C)” value ([2]; HQC) was 102.8 ± 2.3% and the “%Stability recoveries (Mean ± SD), Bench-top 4 h (4 °C)” value ([2]; HQC) was 96.1 ± 2.0%. For the same molecule, the “%Stability recoveries (Mean ± SD), Long-term 40 days (−80 °C)” value ([2]; HQC) was 98.5 ± 2.3%, the “%Stability recoveries (Mean ± SD), Auto-sampler 27 h (18 °C)” value ([2]; HQC) was 103.3 ± 1.3% and the “%Stability recoveries (Mean ± SD), Freeze-thaw (−80 °C)” value ([2]; LQC) was 113.2 ± 3.8%. For the same molecule, the “%Stability recoveries (Mean ± SD), Bench-top 4 h (4 °C)” value ([2]; LQC) was 92.5 ± 4.6%, the “%Stability recoveries (Mean ± SD), Long-term 40 days (−80 °C)” value ([2]; LQC) was 91.3 ± 1.0% and the “%Stability recoveries (Mean ± SD), Auto-sampler 27 h (18 °C)” value ([2]; LQC) was 95.3 ± 8.6%. For the same molecule, the “Stability accuracy under the test conditions” value (“Stability accuracy” below) [2] was 86.6–113.2%.

In the case of `CC[C@@H](CO)NCCN[C@@H](CC)CO` [EMB, ethambutol], the Solubility in acetonitrile [3] is reported as “poor solubility”, the AUC [1, 5] is reported as 58.7 ± 14.8 µg·h/mL and the AUC [1, 6] is reported as 7.88 ± 1.22 µg·h/mL. The AUC ([1]; Medium Dose (standard dose)) was 18.5 ± 2.35 µg·h/mL, the AUC(0-inf) [1, 5] was 59.2 ± 15 µg·h/mL and the AUC(0-inf) [1, 6] was 7.98 ± 1.23 µg·h/mL. For the same molecule, the AUC(0-inf) ([1]; Medium Dose (standard dose)) was 18.7 ± 2.34 µg·h/mL, the Cmax [1, 5] was 21100 ± 4230 ng/mL and the Cmax [1, 6] was 2930 ± 890 ng/mL. It also gave a Cmax ([1]; Medium Dose (standard dose)) of 8720 ± 1150 ng/mL, a half-life [1, 7] of 12 ± 0.62 h and a half-life [1, 8] of 11.8 ± 1.31 h. For the same molecule, the half-life [1, 9] was 12.7 ± 1.88 h, the Tmax [1, 5] was 0.92 ± 0.38 h and the Tmax [1, 6] was 1.25 ± 0.94 h. For the same molecule, the Tmax [1, 10] was 0.83 ± 0.2 h, the “%Stability recoveries (Mean ± SD), Freeze-thaw (−80 °C)” value ([2]; HQC) was 98.0 ± 2.6% and the “%Stability recoveries (Mean ± SD), Bench-top 4 h (4 °C)” value ([2]; HQC) was 86.6 ± 0.9%. The “%Stability recoveries (Mean ± SD), Long-term 40 days (−80 °C)” value ([2]; HQC) was 101.8 ± 0.9%, the “%Stability recoveries (Mean ± SD), Auto-sampler 27 h (18 °C)” value ([2]; HQC) was 94.0 ± 5.0% and the “%Stability recoveries (Mean ± SD), Freeze-thaw (−80 °C)” value ([2]; LQC) was 106.6 ± 6.2%. For the same molecule, the “%Stability recoveries (Mean ± SD), Bench-top 4 h (4 °C)” value ([2]; LQC) was 100.5 ± 4.8%, the “%Stability recoveries (Mean ± SD), Long-term 40 days (−80 °C)” value ([2]; LQC) was 109.3 ± 4.7% and the “%Stability recoveries (Mean ± SD), Auto-sampler 27 h (18 °C)” value ([2]; LQC) was 103.2 ± 3.6%. The “Stability accuracy” value [2] was 86.6–113.2%.

In the case of `CCCc1cc(C(N)=S)ccn1` [PTO, protionamide], the “Stability accuracy” value [4] is reported as 86.6–113.2%.

`NC(=O)c1cnccn1` [PZA, pyrazinamide] showed an AUC [1, 5] of 1970 ± 298 µg·h/mL, an AUC [1, 6] of 50.2 ± 7.6 µg·h/mL and an AUC ([1]; Medium Dose (standard dose)) of 1080 ± 187 µg·h/mL. The AUC(0-inf) [1, 5] was 1970 ± 298 µg·h/mL, the AUC(0-inf) [1, 6] was 50.2 ± 7.6 µg·h/mL and the AUC(0-inf) ([1]; Medium Dose (standard dose)) was 1080 ± 188 µg·h/mL. The Cmax [1, 5] was 241000 ± 19200 ng/mL, the Cmax [1, 6] was 57000 ± 11900 ng/mL and the Cmax ([1]; Medium Dose (standard dose)) was 125000 ± 6700 ng/mL. It also gave a half-life [1, 7] of 2.62 ± 0.1 h, a half-life [1, 8] of 2.82 ± 0.08 h and a half-life [1, 9] of 2.7 ± 0.21 h. The Tmax [1, 5] was 1.33 ± 0.26 h, the Tmax [1, 6] was 1.13 ± 0.54 h and the Tmax [1, 10] was 1.04 ± 0.6 h. For the same molecule, the “%Stability recoveries (Mean ± SD), Freeze-thaw (−80 °C)” value ([2]; HQC) was 98.6 ± 0.7%, the “%Stability recoveries (Mean ± SD), Bench-top 4 h (4 °C)” value ([2]; HQC) was 95.4 ± 2.5% and the “%Stability recoveries (Mean ± SD), Long-term 40 days (−80 °C)” value ([2]; HQC) was 88.6 ± 0.9%. For the same molecule, the “%Stability recoveries (Mean ± SD), Auto-sampler 27 h (18 °C)” value ([2]; HQC) was 102.5 ± 3.3%, the “%Stability recoveries (Mean ± SD), Freeze-thaw (−80 °C)” value ([2]; LQC) was 106.3 ± 3.0% and the “%Stability recoveries (Mean ± SD), Bench-top 4 h (4 °C)” value ([2]; LQC) was 95.2 ± 3.4%. For the same molecule, the “%Stability recoveries (Mean ± SD), Long-term 40 days (−80 °C)” value ([2]; LQC) was 97.9 ± 2.0%, the “%Stability recoveries (Mean ± SD), Auto-sampler 27 h (18 °C)” value ([2]; LQC) was 101.1 ± 1.6% and the “Stability accuracy” value [2] was 86.6–113.2%.
